Tests used:
[1] = target: T1, kappa opioid receptor (KOR) (Homo sapiens, UniProt P41145); assay: OPRKappa 1 Tango B-Arrestin Assay, antagonist mode (Tango OPRK1-bla U2OS cells, U50488 EC80 challenge); assay type: cell-based; conditions: for Selectivity (MOR/KOR): Kappa selectivity, MOR IC50 / KOR IC50; for IC50: antagonist mode, Tango OPRK1-bla U2OS cells, 6 nM U50488 challenge
T1 construct: host or cells: U2OS (Tango OPRK1-bla U2OS)
Outline: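 Tango OPRK1-bla U2OS cells, β-arrestin recruitment read as β-lactamase FRET (CCF4-AM, 460/590 nm emission). Compounds, 10-point 1:3 series from nominal 10 µM in quadruplicate, preincubated 30 min at 37 °C, then challenged with U50488 at 6 nM final (EC80) for 4 h; percent inhibition from median ratio.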

[2] = target: T2, mu opioid receptor (MOR) (Homo sapiens, UniProt P35372); assay: OPRMu1 Discover X β-arrestin Assay, antagonist mode (U2OS cells, DAMGO EC80 challenge); assay type: cell-based
T2 construct: host or cells: U2OS (Discover X OPRMu1-U2OS, PathHunter)
Outline: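 PathHunter U2OS cells with β-gal fragment-complementation readout for β-arrestin recruitment to OPRMu1. Cells were preincubated with compound (10-point, 1:3 series from nominal 10 micromolar) for 30 min at 37 °C, then challenged with 303 nM DAMGO (EC80) for 3 h. Luminescence gave percent inhibition.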

T2 sequence (P35372 whole entry): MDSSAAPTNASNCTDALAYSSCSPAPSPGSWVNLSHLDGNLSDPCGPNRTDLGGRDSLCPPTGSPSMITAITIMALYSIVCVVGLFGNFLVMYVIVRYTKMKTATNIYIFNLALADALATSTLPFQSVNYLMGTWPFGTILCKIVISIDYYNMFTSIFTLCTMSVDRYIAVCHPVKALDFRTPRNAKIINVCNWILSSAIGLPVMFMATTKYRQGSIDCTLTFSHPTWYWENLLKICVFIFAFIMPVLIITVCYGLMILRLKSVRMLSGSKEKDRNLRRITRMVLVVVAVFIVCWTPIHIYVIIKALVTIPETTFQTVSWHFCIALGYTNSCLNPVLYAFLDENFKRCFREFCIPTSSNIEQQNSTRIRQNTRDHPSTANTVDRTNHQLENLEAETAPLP
T1 sequence (P41145 whole entry): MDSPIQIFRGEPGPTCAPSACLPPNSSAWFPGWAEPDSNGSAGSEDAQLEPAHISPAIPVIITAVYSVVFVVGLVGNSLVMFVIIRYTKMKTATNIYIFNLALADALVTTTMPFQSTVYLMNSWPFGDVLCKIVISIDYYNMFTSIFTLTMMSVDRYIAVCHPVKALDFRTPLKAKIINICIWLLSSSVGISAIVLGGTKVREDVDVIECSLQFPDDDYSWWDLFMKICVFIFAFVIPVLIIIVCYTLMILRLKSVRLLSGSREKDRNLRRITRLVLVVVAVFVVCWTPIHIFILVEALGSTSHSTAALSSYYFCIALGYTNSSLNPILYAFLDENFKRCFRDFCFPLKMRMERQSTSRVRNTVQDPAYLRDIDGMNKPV

| SMILES | IC50 [1] [nM] | IC50 [2] [nM] | Selectivity (MOR/KOR) [1] |
| --- | --- | --- | --- |
| CCc1cc(F)c2nc(N3CCC(N[C@H]4CCCC(F)(F)C4)CC3)c(-c3cc(C)n(C)n3)c(C)c2c1 [Compound 67] | 1 to 10 | 10 to 100 | ++ (between 10- and 100-fold selectivity) |
| CCc1cc(F)c2nc(N3CC[C@H](NC4CCOCC4)[C@H](F)C3)c(-c3ccn(C)n3)c(C)c2c1F [Compound 69] | 10 to 100 | > 1000 | +++ (between 100- to 1000-fold selective) |
| CCc1cc(F)c2nc(N3CC[C@H](NC4CCOCC4)[C@H](F)C3)c(-c3nn(C)cc3F)c(C)c2c1F [Compound 70] | 1 to 10 | > 1000 | +++ (between 100- to 1000-fold selective) |
| CCc1cc(F)c2nc(N3CCC(N[C@@H]4COC[C@@H]4F)CC3)c(-c3ccn(C)n3)c(C)c2c1 [Compound 71, 1-(6-ethyl-8-fluoro-4-methyl-3-(1-methyl-1H-pyrazol-3-yl)quinolin-2-yl)-N-((3R,4R)-4-fluorotetrahydrofuran-3-yl)piperidin-4-amine] | 1 to 10 | > 1000 | +++ (between 100- to 1000-fold selective) |
| CCc1cc(F)c2nc(N3CCC(N[C@H]4COC[C@H]4F)CC3)c(-c3ccn(C)n3)c(C)c2c1 [Compound 72, 1-(6-ethyl-8-fluoro-4-methyl-3-(1-methyl-1H-pyrazol-3-yl)quinolin-2-yl)-N-((3S,4S)-4-fluorotetrahydrofuran-3-yl)piperidin-4-amine] | 10 to 100 | > 1000 | ++ (between 10- and 100-fold selectivity) |
| CCc1cc(F)c2nc(N3CCC(N[C@H]4CCCC(F)(F)C4)CC3)c(-c3ccn(C)n3)c(C)c2c1 [Compound 73, (S)—N-(3,3-difluorocyclohexyl)-1-(6-ethyl-8-fluoro-4-methyl-3-(1-methyl-1H-pyrazol-3-yl)quinolin-2-yl)piperidin-4-amine] | 1 to 10 | 100 to 1000 | ++ (between 10- and 100-fold selectivity) |
| CCc1cc(F)c2nc(N3CCC(N[C@@H]4CCCC(F)(F)C4)CC3)c(-c3ccn(C)n3)c(C)c2c1 [Compound 74] | 1 to 10 | 100 to 1000 | ++ (between 10- and 100-fold selectivity) |
| CCc1cc(C#N)c2nc(N3CCC(N[C@H]4CCOC[C@@H]4F)CC3)c(-c3ccn(C)n3)c(C)c2c1 [Compound 77] | < 1 | 100 to 1000 | +++ (between 100- to 1000-fold selective) |
| CCc1cc(C#N)c2nc(N3CCC(N[C@@H]4CCOC[C@@H]4F)CC3)c(-c3ccn(C)n3)c(C)c2c1 [Compound 78] | < 1 | 10 to 100 | ++ (between 10- and 100-fold selectivity) |
| CCc1cc(C#N)c2nc(N3CCC(NC4CC(F)(F)C4)CC3)c(-c3ccn(C)n3)c(C)c2c1 [Compound 79] | 1 to 10 | > 1000 | +++ (between 100- to 1000-fold selective) |
| CCc1cc(C#N)c2nc(N3CCC(NCC4(F)CCOCC4)CC3)c(-c3ccn(C)n3)c(C)c2c1 [Compound 80] | 1 to 10 | 100 to 1000 | ++ (between 10- and 100-fold selectivity) |
| CCc1cc(C#N)c2nc(N3CCC(N4CCOC[C@@H]4C)CC3)c(-c3ccn(C)n3)c(C)c2c1 [Compound 81] | 10 to 100 | > 1000 | ++ (between 10- and 100-fold selectivity) |
| CCc1cc(C#N)c2nc(N3CCC(N4CCOC[C@H]4C)CC3)c(-c3ccn(C)n3)c(C)c2c1 [Compound 82] | 10 to 100 | > 1000 | ++ (between 10- and 100-fold selectivity) |
| CCc1cc(F)c2nc(N3CCC(N[C@H]4CCOC4)CC3)c(-c3cc(C(F)(F)F)n(C)n3)c(C)c2c1 [Compound 84] | 10 to 100 | > 1000 | +++ (between 100- to 1000-fold selective) |
| CCc1cc(F)c2nc(N3CCC(N[C@@H]4CCOC4)CC3)c(-c3cc(C(F)(F)F)n(C)n3)c(C)c2c1 [Compound 85] | 10 to 100 | > 1000 | +++ (between 100- to 1000-fold selective) |
| CCc1cc(-c2ccnn2C)c2nc(N3CCC(N[C@H]4CCOC4)CC3)c(-c3ccn(C)n3)c(C)c2c1 [Compound 86] | < 1 | > 1000 | +++ (between 100- to 1000-fold selective) |
| CCc1cc(-c2ccnn2C)c2nc(N3CCC(N[C@@H]4CCOC4)CC3)c(-c3ccn(C)n3)c(C)c2c1 [Compound 87] | < 1 | 100 to 1000 | +++ (between 100- to 1000-fold selective) |

Now from value to compound, other results behind:

| IC50 [1] [nM] | IC50 [2] [nM] | SMILES | Selectivity (MOR/KOR) [1] |
| --- | --- | --- | --- |
| 1 to 10 | 100 to 1000 | CCc1cc(-c2ccnn2C)c2nc(N3CCC(N[C@@H]4COC[C@@H]4F)CC3)c(-c3ccn(C)n3)c(C)c2c1 [Compound 88] | ++ (between 10- and 100-fold selectivity) |
| 1 to 10 | > 1000 | CCc1cc(-c2ccnn2C)c2nc(N3CCC(N[C@H]4COC[C@H]4F)CC3)c(-c3ccn(C)n3)c(C)c2c1 [Compound 89] | ++ (between 10- and 100-fold selectivity) |
| < 1 | 10 to 100 | CCc1cc(-c2ccnn2C)c2nc(N3CCC(NCC4(F)CCC4)CC3)c(-c3ccn(C)n3)c(C)c2c1 [Compound 90] | +++ (between 100- to 1000-fold selective) |
| 1 to 10 | 10 to 100 | CCc1cc(-c2ccnn2C)c2nc(N3CCC(NCC4CC(F)(F)C4)CC3)c(-c3ccn(C)n3)c(C)c2c1 [Compound 91] | ++ (between 10- and 100-fold selectivity) |
| > 1000 | > 1000 | CCc1cc(-c2ccnn2C)c2nc(N3CCC(N4CCOC[C@@H]4C)CC3)c(-c3ccn(C)n3)c(C)c2c1 [Compound 92] | – |
| > 1000 | > 1000 | CCc1cc(-c2ccnn2C)c2nc(N3CCC(N4CCOC[C@H]4C)CC3)c(-c3ccn(C)n3)c(C)c2c1 [Compound 93] | – |
| < 1 | 10 to 100 | CCc1cc(-c2cc(C)nn2C)c2nc(N3CCC(N[C@H]4CCOC4)CC3)c(-c3ccn(C)n3)c(C)c2c1 [Compound 94] | +++ (between 100- to 1000-fold selective) |
| < 1 | 10 to 100 | CCc1cc(-c2cc(C)nn2C)c2nc(N3CCC(N[C@@H]4CCOC4)CC3)c(-c3ccn(C)n3)c(C)c2c1 [Compound 95] | +++ (between 100- to 1000-fold selective) |
| 1 to 10 | > 1000 | CCc1cc(-c2cc(C)nn2C)c2nc(N3CC[C@H](NC4CCOCC4)[C@H](F)C3)c(-c3ccn(C)n3)c(C)c2c1 [Compound 96] | +++ (between 100- to 1000-fold selective) |
| 1 to 10 | > 1000 | CCc1cc(-c2ccnn2C)c2nc(N3CCN(C[C@@H]4CCOC4)C[C@H]3C)c(-c3ccn(C)n3)c(C)c2c1 [Compound 97] | +++ (between 100- to 1000-fold selective) |
| 10 to 100 | > 1000 | CCc1cc(-c2ccnn2C)c2nc(N3CCN(C[C@H]4CCOC4)C[C@H]3C)c(-c3ccn(C)n3)c(C)c2c1 [Compound 98] | +++ (between 100- to 1000-fold selective) |
| < 1 | > 1000 | CCc1cc(-c2ccn(C)n2)c2nc(N3CCC(N[C@H]4CCOC4)CC3)c(-c3ccn(C)n3)c(C)c2c1 [Compound 99] | ++++ (more than 1000-fold selectivity over MOR) |
